These results are taken from patent US8258176B2, “Dithiolopyrrolone compounds, the preparation and the use thereof” (Shanghai Institute of Pharmaceutical Industry, priority 2007, dated 2012).

This test deals with peripheral blood leukocytes of normal mice. Description: Effects on peripheral blood leukocytes of normal mice (peripheral blood routine test). It counts as in vivo. Conditions: G-CSF 22.5 ug/kg sc once a day. From the text: Animal hematology analyzer, model: HEMAVET950 • 2. Method
The mice were divided into blank control group, positive control group and the dithiolopyrrolone series of compounds group, there are 10 mice in each group.

Setting [1] is: day 0 (before administration), compounds 20 mg/kg ig once a day.
[2] abbreviates: day 3, compounds 20 mg/kg ig once a day.
Where [3] appears, read: day 5, compounds 20 mg/kg ig once a day.

As to `COc1ccc(-n2c3cssc-3c(NC(=O)OCC(C)C)c2=O)c(OC)c1` [compound 002], the “NE % (percentage of neutrophils in the total number of white blood cells)” value is, setting by setting: under setting [1], 20.11%; under setting [2], 52.13%; under setting [3], 68.69%. Further, the WBC count was 8.12e+09 L⁻¹ under setting [1], 1.189e+10 L⁻¹ under setting [2] and 1.678e+10 L⁻¹ under setting [3].
For the compound `COc1ccc(-n2c3cssc-3c(NC(=O)OCc3ccccc3)c2=O)c(OC)c1` [compound 003], the “NE % (percentage of neutrophils in the total number of white blood cells)” value under setting [1] amounted to 32.51%, the “NE % (percentage of neutrophils in the total number of white blood cells)” value under setting [2] is reported as 54.34% and the “NE % (percentage of neutrophils in the total number of white blood cells)” value under setting [3] is on record as 68.30%. Further, the WBC count by setting is: under setting [1], 7.84e+09 L⁻¹; under setting [2], 1.456e+10 L⁻¹; under setting [3], 1.744e+10 L⁻¹.
For the compound `COC(=O)Nc1c2sscc-2n(-c2ccc(OC)cc2OC)c1=O` [compound 005], the “NE % (percentage of neutrophils in the total number of white blood cells)” value is, setting by setting: under setting [1], 26.46%; under setting [2], 35.55%; under setting [3], 46.65%. Further, the WBC count is, setting by setting: under setting [1], 8.08e+09 L⁻¹; under setting [2], 8.76e+09 L⁻¹; under setting [3], 8.64e+09 L⁻¹.
Take `COc1ccc(-n2c3cssc-3c(NC(=O)OC(C)C)c2=O)c(OC)c1` [compound 007]: the “NE % (percentage of neutrophils in the total number of white blood cells)” value under setting [1] was 23.31%, the “NE % (percentage of neutrophils in the total number of white blood cells)” value under setting [2] was 48.67% and the “NE % (percentage of neutrophils in the total number of white blood cells)” value under setting [3] is given as 52.02%. Besides, the WBC count is, setting by setting: under setting [1], 8.11e+09 L⁻¹; under setting [2], 1.188e+10 L⁻¹; under setting [3], 1.222e+10 L⁻¹.
Regarding `C=CCOC(=O)Nc1c2sscc-2n(-c2ccc(OC)cc2OC)c1=O` [compound 008], the “NE % (percentage of neutrophils in the total number of white blood cells)” value is given as 31.56% under setting [1], 60.03% under setting [2] and 65.55% under setting [3]. The WBC count reads like this: under setting [1], 8.88e+09 L⁻¹; under setting [2], 1.779e+10 L⁻¹; under setting [3], 1.876e+10 L⁻¹.
As to `CCCOC(=O)Nc1c2sscc-2n(-c2ccc(OC)cc2OC)c1=O` [compound 009], the “NE % (percentage of neutrophils in the total number of white blood cells)” value is 23.62% under setting [1], 27.46% under setting [2] and 47.78% under setting [3]. Also, the WBC count by setting is: under setting [1], 9.01e+09 L⁻¹; under setting [2], 1.39e+10 L⁻¹; under setting [3], 1.421e+10 L⁻¹.
Regarding `COc1ccc(OC(=O)Nc2c3sscc-3n(-c3ccc(OC)cc3OC)c2=O)cc1` [compound 010], the “NE % (percentage of neutrophils in the total number of white blood cells)” value under setting [1] is listed as 20.86%, the “NE % (percentage of neutrophils in the total number of white blood cells)” value under setting [2] is recorded as 24.34% and the “NE % (percentage of neutrophils in the total number of white blood cells)” value under setting [3] turned out to be 32.34%. Further, the WBC count under setting [1] was found to be 8.87e+09 L⁻¹, the WBC count under setting [2] was found to be 1.018e+10 L⁻¹ and the WBC count under setting [3] is 1.023e+10 L⁻¹.
`CCCCCOC(=O)Nc1c2sscc-2n(-c2ccc(OC)cc2OC)c1=O` [compound 011]: the “NE % (percentage of neutrophils in the total number of white blood cells)” value amounted to 27.68% under setting [1], 46.65% under setting [2] and 51.87% under setting [3]. Moreover, the WBC count reads like this: under setting [1], 8.76e+09 L⁻¹; under setting [2], 1.146e+10 L⁻¹; under setting [3], 1.188e+10 L⁻¹.
Consider `COc1ccc(-n2c3cssc-3c(NC(=O)OCC3CCCO3)c2=O)c(OC)c1` (stereo not drawn) [compound 012], for which the “NE % (percentage of neutrophils in the total number of white blood cells)” value is 34.02% under setting [1], 38.98% under setting [2] and 49.07% under setting [3]. Moreover, the WBC count runs as follows: under setting [1], 9.03e+09 L⁻¹; under setting [2], 1.146e+10 L⁻¹; under setting [3], 1.201e+10 L⁻¹.
With `CCCCOC(=O)Nc1c2sscc-2n(-c2ccc(OC)cc2OC)c1=O` [compound 013], the “NE % (percentage of neutrophils in the total number of white blood cells)” value is 25.6% under setting [1], 48.76% under setting [2] and 52.84% under setting [3]. The WBC count came out at 6.36e+09 L⁻¹ under setting [1], 1.269e+10 L⁻¹ under setting [2] and 1.329e+10 L⁻¹ under setting [3].
Regarding `COc1ccc(-n2c3cssc-3c(NC(=O)OC3CCCC3)c2=O)c(OC)c1` [compound 014], the “NE % (percentage of neutrophils in the total number of white blood cells)” value was found to be 20.81% under setting [1], 23.39% under setting [2] and 40.40% under setting [3]. Moreover, the WBC count turned out to be 6.78e+09 L⁻¹ under setting [1], 1.156e+10 L⁻¹ under setting [2] and 1.201e+10 L⁻¹ under setting [3].
On to `CCCCCCCOC(=O)Nc1c2sscc-2n(-c2ccc(OC)cc2OC)c1=O` [compound 015], for which the “NE % (percentage of neutrophils in the total number of white blood cells)” value under setting [1] is listed as 20.76%, the “NE % (percentage of neutrophils in the total number of white blood cells)” value under setting [2] is reported as 25.65% and the “NE % (percentage of neutrophils in the total number of white blood cells)” value under setting [3] was 38.87%. Also, the WBC count reads like this: under setting [1], 7.46e+09 L⁻¹; under setting [2], 1.156e+10 L⁻¹; under setting [3], 1.334e+10 L⁻¹.
On to `COc1ccc(-n2c3cssc-3c(NC(=O)OCCCl)c2=O)c(OC)c1` [compound 016], for which the “NE % (percentage of neutrophils in the total number of white blood cells)” value under setting [1] turned out to be 18.79%, the “NE % (percentage of neutrophils in the total number of white blood cells)” value under setting [2] stood at 40.47% and the “NE % (percentage of neutrophils in the total number of white blood cells)” value under setting [3] was 45.76%. Moreover, the WBC count runs as follows: under setting [1], 7.34e+09 L⁻¹; under setting [2], 1.047e+10 L⁻¹; under setting [3], 1.156e+10 L⁻¹.
For the compound `COc1ccc(-n2c3cssc-3c(NC(=O)Oc3ccc(Cl)cc3)c2=O)c(OC)c1` [compound 017], the “NE % (percentage of neutrophils in the total number of white blood cells)” value under setting [1] was 23.24%, the “NE % (percentage of neutrophils in the total number of white blood cells)” value under setting [2] amounted to 28.88% and the “NE % (percentage of neutrophils in the total number of white blood cells)” value under setting [3] is given as 36.90%. The WBC count by setting is: under setting [1], 6.36e+09 L⁻¹; under setting [2], 8.67e+09 L⁻¹; under setting [3], 8.88e+09 L⁻¹.
With `COc1ccc(-n2c3cssc-3c(NC(=O)Oc3ccc(C)cc3)c2=O)c(OC)c1` [compound 018], the “NE % (percentage of neutrophils in the total number of white blood cells)” value was 21.74% under setting [1], 23.38% under setting [2] and 26.04% under setting [3]. Also, the WBC count under setting [1] is 6.15e+09 L⁻¹, the WBC count under setting [2] stood at 8.59e+09 L⁻¹ and the WBC count under setting [3] was determined as 9.03e+09 L⁻¹.
Regarding `COc1ccc(-n2c3cssc-3c(NC(=O)OCc3ccco3)c2=O)c(OC)c1` [compound 019], the “NE % (percentage of neutrophils in the total number of white blood cells)” value is 24.36% under setting [1], 28.89% under setting [2] and 29.84% under setting [3]. For the same compound, the WBC count is 6.88e+09 L⁻¹ under setting [1], 9.35e+09 L⁻¹ under setting [2] and 1.087e+10 L⁻¹ under setting [3].
Take `COc1ccc(-n2c3cssc-3c(NC(=O)OC(C)c3ccccc3)c2=O)c(OC)c1` (stereo not drawn) [compound 020]: the “NE % (percentage of neutrophils in the total number of white blood cells)” value is on record as 30.03% under setting [1], 38.66% under setting [2] and 42.49% under setting [3]. Further, the WBC count reads like this: under setting [1], 5.09e+09 L⁻¹; under setting [2], 9.61e+09 L⁻¹; under setting [3], 1.122e+10 L⁻¹.
As to `COc1ccc(-n2c3cssc-3c(NC(=O)OCc3cccs3)c2=O)c(OC)c1` [compound 021], the “NE % (percentage of neutrophils in the total number of white blood cells)” value is given as 29.78% under setting [1], 36.52% under setting [2] and 49.65% under setting [3]. The WBC count reads like this: under setting [1], 5.22e+09 L⁻¹; under setting [2], 9.93e+09 L⁻¹; under setting [3], 1.122e+10 L⁻¹.
As to `COc1ccc(-n2c3cssc-3c(NC(=O)Oc3cccnc3)c2=O)c(OC)c1` [compound 022], the “NE % (percentage of neutrophils in the total number of white blood cells)” value was determined as 31.23% under setting [1], 38.98% under setting [2] and 47.74% under setting [3]. Further, the WBC count runs as follows: under setting [1], 6.86e+09 L⁻¹; under setting [2], 1.003e+10 L⁻¹; under setting [3], 1.211e+10 L⁻¹.
As for `COc1ccc(-n2c3cssc-3c(NC(=O)N3CCOCC3)c2=O)c(OC)c1` [compound 023], the “NE % (percentage of neutrophils in the total number of white blood cells)” value is, setting by setting: under setting [1], 26.86%; under setting [2], 56.66%; under setting [3], 77.31%. Moreover, the WBC count runs as follows: under setting [1], 7.86e+09 L⁻¹; under setting [2], 2.234e+10 L⁻¹; under setting [3], 2.998e+10 L⁻¹.
Consider `COc1ccc(-n2c3cssc-3c(NC(=O)NCc3ccccc3)c2=O)c(OC)c1` [compound 024], for which the “NE % (percentage of neutrophils in the total number of white blood cells)” value is, setting by setting: under setting [1], 24.67%; under setting [2], 33.98%; under setting [3], 42.02%. Also, the WBC count was 7.95e+09 L⁻¹ under setting [1], 8.76e+09 L⁻¹ under setting [2] and 9.71e+09 L⁻¹ under setting [3].
